For this assay, the target named is T1, LHRH (Rattus norvegicus, UniProt P30969).
T1 construct: endogenous in cells; host or cells: rat pituitary cells (own knowledge of the cited Haviv 1989 method)
T1 sequence (P30969 1-327): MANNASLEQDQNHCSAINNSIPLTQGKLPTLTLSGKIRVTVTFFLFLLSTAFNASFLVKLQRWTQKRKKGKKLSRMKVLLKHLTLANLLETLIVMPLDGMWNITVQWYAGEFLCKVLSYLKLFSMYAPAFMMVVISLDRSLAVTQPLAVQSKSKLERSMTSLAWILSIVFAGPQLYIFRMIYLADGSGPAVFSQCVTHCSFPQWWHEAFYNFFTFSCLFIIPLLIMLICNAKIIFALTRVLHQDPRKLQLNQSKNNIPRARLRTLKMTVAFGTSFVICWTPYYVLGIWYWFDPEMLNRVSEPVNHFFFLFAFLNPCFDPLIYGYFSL
Briefly: in vitro test for LHRH antagonist potency (pA2). It counts as cell-based. The settings on record: negative logarithm of the antagonist concentration required to shift the response curve produced by the agonist leuprolide to two-fold higher concentration. Put shortly: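 Rat LHRH receptor in vitro functional test; pA2 = negative log of the antagonist concentration shifting the leuprolide agonist response curve to two-fold higher concentration.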

Non-standard residues stand in square brackets, D forms with d. Residues, ends and D or L forms follow the SMILES beside them. Groups on a side chain read outwards from the residue. *: point of attachment. NMePhe(4-NO2) = CN[C@@H](Cc1ccc([N+](=O)[O-])cc1)C(=O)O; Shikimoyl = O=C(C1=C[C@@H](O)[C@@H](O)[C@H](O)C1)*; Quinoline3carbonyl = O=C(c1cnc2ccccc2c1)*; dPhe(4-Cl) = N[C@H](Cc1ccc(Cl)cc1)C(=O)O; d2Nal = N[C@H](Cc1ccc2ccccc2c1)C(=O)O; NMeY = CN[C@@H](Cc1ccc(O)cc1)C(=O)O; NMeF = CN[C@@H](Cc1ccccc1)C(=O)O; hArg = N=C(N)NCCCC[C@H](N)C(=O)O; d3Pal = N[C@H](Cc1cccnc1)C(=O)O; Nicotinoyl = O=C(c1cccnc1)*; Aze = O=C(O)[C@@H]1CCN1; βAla = NCCC(=O)O

On to `CC(C)C[C@H](NC(=O)[C@@H](CCCCNC(=O)C1=C[C@@H](O)[C@@H](O)[C@H](O)C1)NC(=O)[C@H](Cc1ccc(O)cc1)N(C)C(=O)[C@H](CO)NC(=O)[C@@H](Cc1cccnc1)NC(=O)[C@@H](Cc1ccc(Cl)cc1)NC(=O)[C@@H](Cc1ccc2ccccc2c1)NC(=O)CNC(=O)C1=C[C@@H](O)[C@@H](O)[C@H](O)C1)C(=O)N[C@@H](CCCCNC(=N)N)C(=O)N1CCC[C@H]1C(=O)N[C@H](C)C(N)=O` [Example 25d, N-Shikimyl-Gly-D2Nal-D4ClPhe-D3Pal-Ser-NMeTyr-DLys(Shik)-Leu-Harg-Pro-DAlaNH2] (Shikimoyl-G[d2Nal][dPhe(4-Cl)][d3Pal]S[NMeY][dK](Shikimoyl)L[hArg]P[dA]-NH2), for which the antagonist dissociation constant (Kb) (as a rule, the equilibrium dissociation constant of an antagonist, usually derived from a functional assay) is 0.0339 nM.
`CC(C)C[C@H](NC(=O)[C@@H](CCCCNC(=O)CNC(=O)C1=C[C@@H](O)[C@@H](O)[C@H](O)C1)NC(=O)[C@H](Cc1ccc(O)cc1)N(C)C(=O)[C@H](CO)NC(=O)[C@@H](Cc1cccnc1)NC(=O)[C@@H](Cc1ccc(Cl)cc1)NC(=O)[C@@H](Cc1ccc2ccccc2c1)NC(=O)CNC(=O)c1cccnc1)C(=O)N[C@@H](CCCCNC(=N)N)C(=O)N1CCC[C@H]1C(=O)N[C@H](C)C(N)=O` [Example 25e, N-Nicotinyl-Gly-D2Nal-D4ClPhe-D3Pal-Ser-NMeTyr-DLys(Gly-Shik)-Leu-Harg-Pro-DAlaNH2] (Nicotinoyl-G[d2Nal][dPhe(4-Cl)][d3Pal]S[NMeY][dK]([Gly-Shikimoyl])L[hArg]P[dA]-NH2): the antagonist equilibrium constant (Kb) was 0.00339 nM.
Take `CC(C)C[C@H](NC(=O)[C@@H](CCCCNC(=O)c1cccnc1)NC(=O)[C@H](Cc1ccc(O)cc1)N(C)C(=O)[C@H](CO)NC(=O)[C@@H](Cc1cccnc1)NC(=O)[C@@H](Cc1ccc(Cl)cc1)NC(=O)[C@@H](Cc1ccc2ccccc2c1)NC(=O)CNC(=O)c1cccnc1)C(=O)N[C@@H](CCCCNC(=N)N)C(=O)N1CCC[C@H]1C(=O)N[C@H](C)C(N)=O` [Example 25f, N-Nicotinyl-Gly-D2Nal-D4ClPhe-D3Pal-Ser-NMeTyr-DLys(Nicotinyl)-Leu-Harg-Pro-DAlaNH2] (Nicotinoyl-G[d2Nal][dPhe(4-Cl)][d3Pal]S[NMeY][dK](Nicotinoyl)L[hArg]P[dA]-NH2): the antagonist dissociation constant (Kb) was 0.0234 nM.
Turning to `CC(C)C[C@H](NC(=O)[C@@H](CCCCNC(=O)C1=C[C@@H](O)[C@@H](O)[C@H](O)C1)NC(=O)[C@H](Cc1ccc(O)cc1)N(C)C(=O)[C@H](CO)NC(=O)[C@@H](Cc1cccnc1)NC(=O)[C@@H](Cc1ccc(Cl)cc1)NC(=O)[C@@H](Cc1ccc2ccccc2c1)NC(=O)CNC(=O)c1cnc2ccccc2c1)C(=O)N[C@@H](CCCCNC(=N)N)C(=O)N1CCC[C@H]1C(=O)N[C@H](C)C(N)=O` [Example 25g, N-(3-Quinolinylcarbonyl)-Gly-D2Nal-D4ClPhe-D3Pal-Ser-NMeTyr-DLys(Shikimyl)-Leu-Harg-Pro-DAlaNH2] (Quinoline3carbonyl-G[d2Nal][dPhe(4-Cl)][d3Pal]S[NMeY][dK](Shikimoyl)L[hArg]P[dA]-NH2), the antagonist equilibrium constant (Kb) was 0.0324 nM.
With `CC(C)C[C@H](NC(=O)[C@@H](CCCCNC(=O)C1=C[C@@H](O)[C@@H](O)[C@H](O)C1)NC(=O)[C@H](Cc1ccccc1)N(C)C(=O)[C@H](CO)NC(=O)[C@@H](Cc1cccnc1)NC(=O)[C@@H](Cc1ccc(Cl)cc1)NC(=O)[C@@H](Cc1ccc2ccccc2c1)NC(=O)CNC(=O)c1cccnc1)C(=O)N[C@@H](CCCCNC(=N)N)C(=O)N1CCC[C@H]1C(=O)N[C@H](C)C(N)=O` [Example 26a, N-Nicotinyl-Gly-D2Nal-D4ClPhe-D3Pal-Ser-NMePhe-DLys(Shik)-Leu-Harg-Pro-DAlaNH2] (Nicotinoyl-G[d2Nal][dPhe(4-Cl)][d3Pal]S[NMeF][dK](Shikimoyl)L[hArg]P[dA]-NH2), the Kb was 0.0275 nM.
Regarding `CC(C)C[C@H](NC(=O)[C@@H](CCCCNC(=O)C1=C[C@@H](O)[C@@H](O)[C@H](O)C1)NC(=O)[C@H](Cc1ccc([N+](=O)[O-])cc1)N(C)C(=O)[C@H](CO)NC(=O)[C@@H](Cc1cccnc1)NC(=O)[C@@H](Cc1ccc(Cl)cc1)NC(=O)[C@@H](Cc1ccc2ccccc2c1)NC(=O)CNC(=O)c1cccnc1)C(=O)N[C@@H](CCCCNC(=N)N)C(=O)N1CCC[C@H]1C(=O)N[C@H](C)C(N)=O` [Example 26b, N-Nicotinyl-Gly-D2Nal-D4ClPhe-D3Pal-Ser-NMePhe(NO2)-DLys(Shik)-Leu-Harg-Pro-DAlaNH2] (Nicotinoyl-G[d2Nal][dPhe(4-Cl)][d3Pal]S[NMePhe(4-NO2)][dK](Shikimoyl)L[hArg]P[dA]-NH2), the antagonist dissociation constant (Kb) was 0.0437 nM.
Take `CC(C)C[C@H](NC(=O)[C@@H](CCCCNC(=O)c1cccnc1)NC(=O)[C@H](Cc1ccc(O)cc1)N(C)C(=O)[C@H](CO)NC(=O)[C@@H](Cc1cccnc1)NC(=O)[C@@H](Cc1ccc(Cl)cc1)NC(=O)[C@@H](Cc1ccc2ccccc2c1)NC(=O)CNC(=O)c1cccnc1)C(=O)N[C@@H](CCCNC(=N)N)C(=O)N1CCC[C@H]1C(=O)N[C@H](C)C(N)=O` [Example 27a, N-Nicotinyl-Gly-D2Nal-D4ClPhe-D3Pal-Ser-NMeTyr-DLys(Nic)-Leu-Arg-Pro-DAlaNH2] (Nicotinoyl-G[d2Nal][dPhe(4-Cl)][d3Pal]S[NMeY][dK](Nicotinoyl)LRP[dA]-NH2): the antagonist equilibrium constant (Kb) was 0.00776 nM.
Next, `CC(C)C[C@H](NC(=O)[C@@H](CCCCNC(=O)c1cccnc1)NC(=O)[C@H](Cc1ccc(O)cc1)N(C)C(=O)[C@H](CO)NC(=O)[C@@H](Cc1cccnc1)NC(=O)[C@@H](Cc1ccc(Cl)cc1)NC(=O)[C@@H](Cc1ccc2ccccc2c1)NC(=O)CNC(=O)C1=C[C@@H](O)[C@@H](O)[C@H](O)C1)C(=O)N[C@@H](CCCNC(=N)N)C(=O)N1CC[C@H]1C(=O)N[C@H](C)C(N)=O` [Example 27c, N-Shikimyl-Gly-D2Nal-D4ClPhe-D3Pal-Ser-NMeTyr-DLys(Nic)-Leu-Arg-Aze-DAlaNH2] (Shikimoyl-G[d2Nal][dPhe(4-Cl)][d3Pal]S[NMeY][dK](Nicotinoyl)LR[Aze][dA]-NH2): 0.0977 nM; `CC(C)C[C@H](NC(=O)[C@@H](CCCCNC(=O)C1=C[C@@H](O)[C@@H](O)[C@H](O)C1)NC(=O)[C@H](Cc1ccc(O)cc1)N(C)C(=O)[C@H](CO)NC(=O)[C@@H](Cc1cccnc1)NC(=O)[C@@H](Cc1ccc(Cl)cc1)NC(=O)[C@@H](Cc1ccc2ccccc2c1)NC(=O)CCNC(=O)c1cccnc1)C(=O)N[C@@H](CCCNC(=N)N)C(=O)N1CCC[C@H]1C(=O)N[C@H](C)C(N)=O` [Example 27d, N-Nicotinyl-3-Aminopropionyl-D2Nal-D4ClPhe-D3Pal-Ser-NMeTyr-DLys(Shikimyl)-Leu-Arg-Pro-DAlaNH 2] ({Nicotinoyl-βAla}-[d2Nal][dPhe(4-Cl)][d3Pal]S[NMeY][dK](Shikimoyl)LRP[dA]-NH2): 0.00178 nM; `CC(C)C[C@H](NC(=O)[C@@H](CCCCNC(=O)C1=C[C@@H](O)[C@@H](O)[C@H](O)C1)NC(=O)[C@H](Cc1ccc(O)cc1)N(C)C(=O)[C@H](CO)NC(=O)[C@@H](Cc1cccnc1)NC(=O)[C@@H](Cc1ccc(Cl)cc1)NC(=O)[C@@H](Cc1ccc2ccccc2c1)NC(=O)CCNC(=O)C1=C[C@@H](O)[C@@H](O)[C@H](O)C1)C(=O)N[C@@H](CCCNC(=N)N)C(=O)N1CCC[C@H]1C(=O)N[C@H](C)C(N)=O` [Example 27e, N-Shikimyl-3-Aminopropionyl-D2Nal-D4ClPhe-D3Pal-Ser-NMeTyr-DLys(Shik)-Leu- Arg-Pro-DAlaNH2] ({Shikimoyl-βAla}-[d2Nal][dPhe(4-Cl)][d3Pal]S[NMeY][dK](Shikimoyl)LRP[dA]-NH2): 0.0347 nM.

(Values after patent US5502035A, “N-terminus modified analogs of LHRH” (Tap Holdings Inc., priority 1994, dated 1996).)
